Laboratory results: ChEMBL document CHEMBL3745677, “Discovery of 6-(4-{[5-Cyclopropyl-3-(2,6-dichlorophenyl)isoxazol-4-yl]methoxy}piperidin-1-yl)-1-methyl-1H-indole-3-carboxylic Acid: A Novel FXR Agonist for the Treatment of Dyslipidemia” (J Med Chem, 2015)

How the values were obtained:
Type in all cases: functional, Zucker
Rattus norvegicus [1] = experiment: Antidyslipidemic activity in ZDF rat assessed as LDL/IgHDL level at 0.3 mg/kg for 9 days by FPLC analysis (reference value: 17.8 mg/dL)
Rattus norvegicus [2] = experiment: Antidyslipidemic activity in ZDF rat assessed as VLDL level at 0.3 mg/kg for 9 days by FPLC analysis (reference value: 35 mg/dL)
Rattus norvegicus [3] = experiment: Antidyslipidemic activity in ZDF rat assessed as HDL level at 0.3 mg/kg for 9 days by FPLC analysis (reference value: 48.3 mg/dL)

## CN(CCOc1ccc(CC2SC(=O)NC2=O)cc1)c1ccccn1 (stereo not drawn) [ROSIGLITAZONE]
Rattus norvegicus [1]
  Activity: 19 mg/dL
Rattus norvegicus [2]
  Activity: 26.3 mg/dL
Rattus norvegicus [3]
  Activity: 61.3 mg/dL
